From patent US20200339544A1 (JOINT STOCK COMPANY "BIOCAD", priority 2017, published 2020)
pIC50: −log10 of the molar value.

What was measured:
[1] = Enzyme stability in human liver S9 fractions; assay type: in vitro ADME; conditions: 0.5 mg/mL pooled human liver S9 fractions; 10 μM compound; 37° C.; pH 7.4; read-out: Stability in liver S9 fractions, Clint
In short: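 Compound at 10 μM was incubated at 37 °C with 0.5 mg/mL pooled human liver S9, 2 mM β-NAD and 4 mM MgCl2 in 0.1 M sodium phosphate, pH 7.4, then quenched with acetonitrile and analysed chromatographically. T½ and CLint were derived from the slope of log peak area versus time.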

[2] = target: T1, DM EGFR (DoubleMutantEGFR, L828R/T790M) (Homo sapiens, UniProt P00533, L858R/T790M); test: Inhibition of DM EGFR kinase activity (ADP-Glo); assay type: biochemical; conditions: for pIC50: inhibition of kinase activity, EGFR DM (L828R/T790M); for SI, IC50(WT)/IC50(DM): selectivity index, kinase EGFR WT vs EGFR DM
T1 construct: purchased SignalChem
In short: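 Luminescent ADP-Glo readout was used for both wild-type and L858R/T790M EGFR, each run 180 minutes at 37° C. Reactions used a solution of 50 μM ATP with 0.5 mg/mL peptide substrate. Four-parameter logistic curves gave IC50.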

HepG2 cells = test: General cytotoxicity on HepG2 cells; assay type: cell-based; conditions: therapeutic index, CC50 HepG2 / IC50 H1975
In short: (§1)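 HepG2 cells seeded at 2*10^4 cells per well and compounds added in DMEM with 2% FBS for 72 h at 37 °C. Viability read with Alamar Blue and CC50 derived as for IC50. Therapeutic index taken as HepG2 CC50 over H1975 IC50.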

[3] = General cytotoxicity on HepG2 cells; assay type: cell-based; conditions: human; general cytotoxicity, HepG2 cells, 72 hours, average of several tests
In short: as §1

[4] = Chemical stability in simulated intestinal fluid (SIF); assay type: physicochemical; conditions: SIF without enzymes, pH 6.5; 10 μm; 2 hours at 37° C.; substance amount remaining
In short: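 Compound at 10 μm (diluted from 10 mM DMSO stock) incubated 2 h at 37° C in enzyme-free SGF, pH=1,4, or enzyme-free SIF, pH=6.5. HPLC peak areas before and after incubation give % compound remaining.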

[5] = Chemical stability in human blood plasma; assay type: in vitro ADME; conditions: pooled human blood plasma; 10 μm; 4 hours at 37° C.; substance amount remaining
In short: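 Percent of parent remaining was derived by comparing HPLC peak areas at time zero and after 4 h at 37 °C. Test compound was at 10 μM in human plasma pooled from ten donors, and proteins were precipitated with acetonitrile before analysis.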

| Intrinsic clearance in human liver S9 fractions at 10 µM [1] [µL/min/mg] | pIC50 [2] | SI, IC50(WT)/IC50(DM) [2] | Stability in SIF, % [4] [%] | Stability in blood plasma, % [5] [%] | Compound | TI, CC50/IC50 (HepG2 cells) | CC50 at 72 h [3] [µM] |
| --- | --- | --- | --- | --- | --- | --- | --- |
| 12.8 | 8.56 | 19.27 | 98.8 | 91.8 | C=CC(=O)Nc1cc(Nc2nccc(C(=O)c3ccc(N4CC(OC)C4)cc3)n2)c(OC)cc1N(C)CCN(C)C [EGFR_3365_61, N-(2-((2-(dimethylamino)ethyl)(methyl)amino)-4-methoxy-5-((4-(4-(3-methoxyazetidin-1-yl)benzoyl)pyrimidin-2-yl)amino)phenyl)acrylamide] | 5296 | 43 |
| 17.8 | 8.08 | 7.17 | 98.4 | 100.0 | C=CC(=O)Nc1cc(Nc2cc(C(=O)c3ccc(-c4cnn(C)c4)cc3)ccn2)c(OC)cc1N(C)CCN(C)C [EGFR_3365_85, N-(2-((2-(dimethylamino)ethyl)(methyl)amino)-4-methoxy-5-((4-(4-(1-methyl-1H-pyrazol-4-yl)benzoyl)pyridin-2-yl)amino)phenyl) acrylamide] | 153 | 21.2 |
| 0.7 | 7.83 | 16.96 | 98.6 | 90.0 | C=CC(=O)Nc1cc(Nc2nccc(C(=O)c3ccc(OCCC)cc3OCCC)n2)c(OC)cc1N(C)CCN(C)C [EGFR_3365_70, N-(2-((2-(dimethylamino)ethyl)(methyl)amino)-5-((4-(2,4-dipropoxybenzoyl)pyrimidin-2-yl)amino)-4-methoxyphenyl)acrylamide] | 56 | 11.5 |
